Results reported in PubChem BioAssay AID1963869 (Molecular Pharmacology Branch, DTP, NCI, 2024).
Where “and” joins values, the source holds several entries; their conditions need not be identical. Identical values can stand only once.

Tested on: KRAS patient-derived spheroids with HUVEC/MSC, viability
Experiment: Anticancer human tumor 323965-272-R-J2-PDC patient-derived pancreatic carcinoma cell line growth inhibition [KRAS2]
Conditions: for viability, T/C: stronger effect = lower value
Excerpt: Multicellular complex tumor spheroid response to RAS pathway inhibitors in combination with a targeted agents in patient-derived cell lines with oncogenic KRAS variants from multiple cancer types
A high-throughput screen of multi-cell type tumor spheroids was designed to identify active combinations of targeted small molecules and KRAS pathway inhibitors. Complex spheroids include a stromal component modeled by human endothelial cells (HUVEC) and fibroblasts modeled by human mesenchymal stem cells (MSCs). The concentration ranges selected for each drug and investigational agent were based upon clinically achievable concentrations if the clinical Cmax of the agent was known.
Compounds. The drugs and investigational agents: BI-3406 (NSC825286), BAY-293 (NSC824723), batoprotafib (TNO155; NSC825523), sotorasib (AMG 510; NSC818433), MRTX1257 (NSC819558), elimusertib (BAY 1895344; NSC800525), molibresib (GSK525762; NSC774829), temuterkib (LY3214996; NSC803410), venetoclax (NSC766270), alisertib (NSC759677), olaparib (NSC753686), talazoparib (NSC767125), erdafitinib (NSC781556), ipatasertib (NSC767898), cabozantinib (NSC761068), nintedanib (NSC756659), abemaciclib (NSC768073), docetaxel (NSC628503), trametinib (NSC758246), and sapanisertib (NSC764658) were obtained from the National Cancer Institute (NCI) Developmental Therapeutics Program Chemical Repository. The FDA-approved anticancer drug set is available from the Developmental Therapeutics Program. […] The stock solutions were prepared in dimethyl sulfoxide (DMSO, Sigma-Aldrich, St. Louis, MO, cat. D2650) at 800-fold the tested concentration and stored at -70 degrees C prior to their use. All drugs and investigational agents were tested over a range starting from a high concentration at or near the clinical Cmax and decreasing in half-log increments. If the clinical Cmax for an agent had not been determined, the highest concentration tested was 10 microM.
Cell Culture. All cells were maintained in an incubator at 37 degrees C and 5% CO2 with 95% humidity. The PDC lines were cultured according to standard operating procedures established by the NCI PDMR (https://pdmr.cancer.gov/sops/default.htm). Briefly, all PDCs were thawed and cultured in Matrigel-coated flasks prepared with a working solution of 1X Ham's F-12 nutrient mix, without supplementation (Invitrogen, Waltham, MA, cat. 11765054), 100 U/mL penicillin-streptomycin (Invitrogen, cat. 15140122), and 2.5% Matrigel (Corning Inc., Corning, NY, cat. 354248) for the first three passages. All PDCs were cultured in complete DMEM/F-12 media containing advanced DMEM/F-12 (Invitrogen, cat. 12634028), 4.9% defined fetal bovine serum, heat inactivated (HyClone Laboratories Inc., Logan, UT, cat. SH30070.03HI), 389 ng/mL hydrocortisone (Sigma-Aldrich, cat. H4001), 9.7 ng/mL human EGF recombinant protein (Invitrogen, cat. PHG0313), 23.4 microg/mL adenine (Sigma-Aldrich, cat. A2786), 97.3 U/mL penicillin-streptomycin (Invitrogen, cat. 15140122), 1.9 mM L-glutamine (Invitrogen, cat. 25030081), and 9.7 microM Y-27632 dihydrochloride (Tocris Bioscience, Bristol, United Kingdom, cat. 1254). The PDCs were cultured in complete DMEM/F12 media without 9.7 microM Y-27632 dihydrochloride for at least two passages prior to the screen. The established cell line HOP-62 was cultured in RPMI 1640 medium, HEPES (Invitrogen, cat. 22400105) with 10% defined fetal bovine serum (HyClone Laboratories Inc., cat. SH30070.03) and 2 mM L-glutamine (Invitrogen, cat. 25030081). The pooled donor HUVEC were cultured in endothelial cell growth medium 2 (PromoCell, Heidelberg, Germany, cat. C-22011) and the hMSC were cultured in mesenchymal stem cell growth medium 2 (PromoCell, cat. C-28009). For all experiments, HUVEC and hMSC were used at passages </=5, while the malignant cell lines were used at passages </=15. […]

[1] = compound alone, run of 08/19/2021
[2] = compound alone, run of 08/26/2021
[3] = compound alone, run of 09/02/2021
[4] = curve of first compound, second compound 0.1 µM
[5] = curve of first compound, second compound 0.316 µM
[6] = curve of first compound, second compound 1 µM
[7] = curve of first compound, second compound 3.16 µM
[8] = curve of first compound, second compound 10 µM
[9] = second compound 0.1 µM, first compound 0.01 µM
[10] = second compound 0.1 µM, first compound 0.0316 µM
[11] = second compound 0.1 µM, first compound 0.1 µM
[12] = second compound 0.316 µM, first compound 0.01 µM
[13] = second compound 0.316 µM, first compound 0.0316 µM
[14] = second compound 0.316 µM, first compound 0.1 µM
[15] = second compound 1 µM, first compound 0.01 µM
[16] = second compound 1 µM, first compound 0.0316 µM
[17] = second compound 1 µM, first compound 0.1 µM
[18] = second compound 3.16 µM, first compound 0.01 µM
[19] = second compound 3.16 µM, first compound 0.0316 µM
[20] = second compound 3.16 µM, first compound 0.1 µM
[21] = second compound 10 µM, first compound 0.01 µM
[22] = second compound 10 µM, first compound 0.0316 µM
[23] = second compound 10 µM, first compound 0.1 µM
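Note: spheroids exposed to agents for 7 days.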
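Throughout, for viability, T/C: 100% = DMSO vehicle control viability.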

For C=CC(=O)N1CCN(c2nc(=O)n(-c3c(C)ccnc3C(C)C)c3nc(-c4c(O)cccc4F)c(F)cc23)C(C)C1 (stereo not drawn), the viability, T/C (compound 0.1 µM) was 58.9% [middle of 17 runs], the viability, T/C (compound 0.316 µM) was 58.4% [middle of 17 runs] and the viability, T/C (compound 1 µM) was 59.1% [middle of 17 runs]. The viability, T/C (compound 3.16 µM) was 60.4% [middle of 17 runs], the viability, T/C (compound 10 µM) was 52% [middle of 17 runs] and the IC50 [1] was > 10000 nM and 2730 nM. The IC50 [2] was > 10000 nM and 7820 nM and 9640 nM and the IC50 [3] was over 10000 nM.

In the case of CNCc1ccccc1-c1csc(C(C)Nc2nc(C)nc3cc(OC)c(OC)cc23)c1 (stereo not drawn), the viability, T/C (compound 0.316 µM) is reported as 89.6% [middle of 16 runs], the viability, T/C (compound 1 µM) is reported as 89.2% [middle of 16 runs] and the IC50 [2] is reported as 5.39 µM [middle of 4 runs]. The IC50 [3] was 4.96 µM [middle of 6 runs].

COC(=O)c1ccc2c(C(=Nc3ccc(N(C)C(=O)CN4CCN(C)CC4)cc3)c3ccccc3)c(O)[nH]c2c1 was tested, and the viability, T/C (compound 0.0316 µM) was 97.4% [middle of 5 runs], the viability, T/C (compound 0.1 µM) was 102% [middle of 5 runs] and the viability, T/C (compound 0.316 µM) was 101% [middle of 5 runs]. For the same compound, the viability, T/C (compound 1 µM) was 98% [middle of 5 runs], the viability, T/C (compound 3.16 µM) was 98.7% [middle of 5 runs] and the IC50 (curve of compound) was 7380 nM and > 10000 nM and 7570 nM.

In the case of COc1cc2nc(C)nc(NC(C)c3cc(N)cc(C(F)(F)F)c3)c2cc1OC1CCOC1 (stereo not drawn), the viability, T/C (compound 0.316 µM) is reported as 75.7% [middle of 17 runs], the viability, T/C (compound 3.16 µM) is reported as 77.2% [middle of 17 runs] and the IC50 [1] is reported as over 10000 nM. For the same compound, the IC50 [2] was over 10000 nM and the IC50 [3] was over 10000 nM.

CC(=O)OC12COC1CC(O)C1(C)C(=O)C(O)C3=C(C)C(OC(=O)C(O)C(NC(=O)OC(C)(C)C)c4ccccc4)CC(O)(C(OC(=O)c4ccccc4)C21)C3(C)C (stereo not drawn) + C=CC(=O)N1CCN(c2nc(=O)n(-c3c(C)ccnc3C(C)C)c3nc(-c4c(O)cccc4F)c(F)cc23)C(C)C1 gave an IC50 [4] of under 10 nM, an IC50 [5] of under 10 nM and an IC50 [6] of under 10 nM. The IC50 [7] was under 10 nM, the IC50 [8] was under 10 nM and the viability, T/C [9] was 22.7%. It also gave a viability, T/C [10] of 21.7%, a viability, T/C [11] of 19.9% and a viability, T/C (second compound 0.1 µM, first compound 0.316 µM) of 19.2%. For the same compound, the viability, T/C (second compound 0.1 µM, first compound 1 µM) was 18.9%, the viability, T/C (second compound 0.1 µM, first compound 3.16 µM) was 22.2% and the viability, T/C [12] was 21.9%. For the same compound, the viability, T/C [13] was 21.5%, the viability, T/C [14] was 21.6% and the viability, T/C (second compound 0.316 µM, first compound 0.316 µM) was 19.4%. It also gave a viability, T/C (second compound 0.316 µM, first compound 1 µM) of 20.9%, a viability, T/C (second compound 0.316 µM, first compound 3.16 µM) of 21.1% and a viability, T/C [15] of 21.3%. For the same compound, the viability, T/C [16] was 19.2%, the viability, T/C [17] was 19.6% and the viability, T/C (second compound 1 µM, first compound 0.316 µM) was 17.4%. The viability, T/C (second compound 1 µM, first compound 1 µM) was 18.7%, the viability, T/C (second compound 1 µM, first compound 3.16 µM) was 19.7% and the viability, T/C [18] was 19.7%. For the same compound, the viability, T/C [19] was 21.9%, the viability, T/C [20] was 17.6% and the viability, T/C (second compound 3.16 µM, first compound 0.316 µM) was 19.6%. For the same compound, the viability, T/C (second compound 3.16 µM, first compound 1 µM) was 18.9%, the viability, T/C (second compound 3.16 µM, first compound 3.16 µM) was 18.5% and the viability, T/C [21] was 21.3%. For the same compound, the viability, T/C [22] was 19.6%, the viability, T/C [23] was 19.8% and the viability, T/C (second compound 10 µM, first compound 0.316 µM) was 15.6%. The viability, T/C (second compound 10 µM, first compound 1 µM) was 16% and the viability, T/C (second compound 10 µM, first compound 3.16 µM) was 16.7%.

CN(C)C/C=C/C(=O)Nc1cc2c(Nc3ccc(F)c(Cl)c3)ncnc2cc1O[C@H]1CCOC1 + C=CC(=O)N1CCN(c2nc(=O)n(-c3c(C)ccnc3C(C)C)c3nc(-c4c(O)cccc4F)c(F)cc23)C(C)C1 gave an IC50 [4] of 6.19 nM, an IC50 [5] of 1.29 nM and an IC50 [6] of 1.87 nM. For the same compound, the IC50 [7] was 4.24 nM, the IC50 [8] was 1.48 nM and the viability, T/C (second compound 0.1 µM, first compound 0.000316 µM) was 63.3%. For the same compound, the viability, T/C (second compound 0.1 µM, first compound 0.001 µM) was 50.9%, the viability, T/C (second compound 0.1 µM, first compound 0.00316 µM) was 49.6% and the viability, T/C [9] was 57.7%. It also gave a viability, T/C [10] of 43.1%, a viability, T/C [11] of 44% and a viability, T/C (second compound 0.316 µM, first compound 0.000316 µM) of 61.3%. For the same compound, the viability, T/C (second compound 0.316 µM, first compound 0.001 µM) was 50%, the viability, T/C (second compound 0.316 µM, first compound 0.00316 µM) was 47.3% and the viability, T/C [12] was 42.4%. The viability, T/C [13] was 41.8%, the viability, T/C [14] was 40.5% and the viability, T/C (second compound 1 µM, first compound 0.000316 µM) was 58.6%. For the same compound, the viability, T/C (second compound 1 µM, first compound 0.001 µM) was 54.2%, the viability, T/C (second compound 1 µM, first compound 0.00316 µM) was 50.5% and the viability, T/C [15] was 41.3%. It also gave a viability, T/C [16] of 37.8%, a viability, T/C [17] of 44.6% and a viability, T/C (second compound 3.16 µM, first compound 0.000316 µM) of 58.1%. For the same compound, the viability, T/C (second compound 3.16 µM, first compound 0.001 µM) was 58%, the viability, T/C (second compound 3.16 µM, first compound 0.00316 µM) was 50.1% and the viability, T/C [18] was 48%. It also gave a viability, T/C [19] of 40.5%, a viability, T/C [20] of 42.5% and a viability, T/C (second compound 10 µM, first compound 0.000316 µM) of 62.2%. It also gave a viability, T/C (second compound 10 µM, first compound 0.001 µM) of 53%, a viability, T/C (second compound 10 µM, first compound 0.00316 µM) of 44.6% and a viability, T/C [21] of 45.6%. It also gave a viability, T/C [22] of 45.7% and a viability, T/C [23] of 43.5%.
